# Patent US6548449B1, “Substituted phenyluracils with herbicidal effect” (Bayer Aktiengesellschaft, priority 1998, dated 2003)
# What was measured:
# weeds [1] = assay: Pre-emergence test, activity against weeds; type: in vivo; conditions: soil sprayed about 24 hours after sowing, rated after three weeks vs untreated control
# Procedure: (§1) Solvent: 5 parts by weight of acetone
# (§2) Emulsifier: 1 part by weight of alkylaryl polyglycol ether
# (§3) To produce a suitable preparation of active compound, 1 part by weight of active compound is mixed with the stated amount of solvent, the stated amount of emulsifier is added and the concentrate is diluted with water to the desired concentration.
# (§4) Seeds of the test plants are sown in normal soil. After about 24 hours, the soil is sprayed with the preparation of active compounds such that the particular amounts of active compound desired are applied per unit area. The concentration of the spray liquor is chosen so that the particular amounts of active compound desired are applied in 1000 l of water/ha.
# (§5) After three weeks, the degree of damage to the plants is rated in % damage in comparison to the development of the untreated control.
# (§6) 0%=no effect (like untreated control)
# [2] = system: crop plants, such as, for example, barley and cotton; assay: Pre-emergence test, tolerance by crop plants; type: in vivo; conditions: rated after three weeks
# Procedure: as §1, §2, §3, §4, §5, §6
# weeds [3] = assay: Post-emergence test, activity against weeds; type: in vivo; conditions: test plants of a height of 5-15 cm sprayed, rated after three weeks vs untreated control
# Procedure: as §1, §2
# To produce a suitable preparation of active compound, 1 part by weight of active compound is mixed with the stated amount of solvent, the stated amount of emulsifiers is added and the concentrate is diluted with water to the desired concentration.
# Test plants of a height of 5-15 cm are sprayed with the preparation of active compound such that the particular amounts of active compound are employed per unit area. The concentration of the spray liquor is chosen so that the particular amounts of active compound desired are applied in 1000 l of water/ha.
# as §5, §6
melting point,Structure (SMILES),activity against weeds (degree of damage to the plants) (weeds [1]),tolerance by crop plants [2],activity against weeds (degree of damage to the plants) (weeds [3])
151 °C,"CCS(=O)(=O)Nc1cc(COc2ccc(-n3c(=O)cc(C(F)(F)F)n(C)c3=O)c(F)c2)ccc1Cl [Example 5, 1-[2-fluoro-4-(4-chloro-3-ethylsulphonylamino-benzyloxy)-phenyl]-3-methyl-4-trifluoromethyl-3,6-dihydro-2,6-dioxo-1(2H)-pyrimidine]",very strong activity,tolerated well,very strong activity
133 °C,"Cn1c(C(F)(F)F)cc(=O)n(-c2ccc(OCc3ccc(Cl)c([N+](=O)[O-])c3)cc2F)c1=O [Example 2, 1-[2-fluoro-4-(4-chloro-3-nitro-benzyloxy)-phenyl]-3-methyl-4-trifluoromethyl-3,6-dihydro-2,6-dioxo-1 (2H)-pyrimidine]",–,–,very strong activity
185 °C,"Nn1c(C(F)(F)F)cc(=O)n(-c2ccc(OCc3ccc(Cl)c([N+](=O)[O-])c3)cc2F)c1=O [Example 3, 3-amino-1-[2-fluoro-4-(4-chloro-3-nitro-benzyl-oxy)-phenyl]-4-trifluoromethyl-3,6-dihydro-2,6-dioxo-1(2H)-pyrimidine]",–,–,very strong activity
165 °C,"O=c1cc(C(F)(F)F)[nH]c(=O)n1-c1ccc(OCc2ccc(Cl)c([N+](=O)[O-])c2)cc1F [Example 1, 1-[2-fluoro-4-(4-chloro-3-nitro-benzyloxy)-phenyl]-4-trifluoromethyl-3,6-dihydro-2,6-dioxo-1(2H)-pyrimidine]",–,–,–
148 °C,"Cn1c(C(F)(F)F)cc(=O)n(-c2ccc(OCc3ccc(Cl)c(N)c3)cc2F)c1=O [Example 4, 1-[2-fluoro-4-(3-amino-4-chloro-benzyloxy)-phenyl]-3-methyl-4-trifluoromethyl-3,6-dihydro-2,6-dioxo-1 (2H)-pyrimidine]",–,–,very strong activity
